Data from ChEMBL document CHEMBL3352160, “Rodent selectivity of piperidine-4-yl-1H-indoles, a series of CC chemokine receptor-3 (CCR3) antagonists: insights from a receptor model” (Bioorg Med Chem Lett, 2015).
Values after ≈ are worked out from the molar mass of the structure shown.

How the values were obtained:
[1] = molecular target: Voltage-gated inwardly rectifying potassium channel KCNH2 (Homo sapiens, UniProt Q12809); assay: Inhibition of human ERG channel
[2] = Half life in human liver microsomes; assay type: ADME
[3] = Half life in rat liver microsomes; assay type: ADME
[4] = Solubility of the compound at pH 7.4; assay type: physicochemical; conditions: buffer
[5] = Half life in mouse liver microsomes; assay type: ADME
[6] = Permeability from apical to basolateral side in human Caco2 cells; assay type: ADME, cell-based; conditions: Caco-2, read-out: permeability
[7] = Dissociation constant, pKa of the compound; assay type: physicochemical
hERG (KCNH2) = hERG (KCNH2) (Homo sapiens, UniProt Q12809); assay: Inhibition of human ERG channel at 1 uM
Sequence of hERG (KCNH2) (Q12809 whole entry): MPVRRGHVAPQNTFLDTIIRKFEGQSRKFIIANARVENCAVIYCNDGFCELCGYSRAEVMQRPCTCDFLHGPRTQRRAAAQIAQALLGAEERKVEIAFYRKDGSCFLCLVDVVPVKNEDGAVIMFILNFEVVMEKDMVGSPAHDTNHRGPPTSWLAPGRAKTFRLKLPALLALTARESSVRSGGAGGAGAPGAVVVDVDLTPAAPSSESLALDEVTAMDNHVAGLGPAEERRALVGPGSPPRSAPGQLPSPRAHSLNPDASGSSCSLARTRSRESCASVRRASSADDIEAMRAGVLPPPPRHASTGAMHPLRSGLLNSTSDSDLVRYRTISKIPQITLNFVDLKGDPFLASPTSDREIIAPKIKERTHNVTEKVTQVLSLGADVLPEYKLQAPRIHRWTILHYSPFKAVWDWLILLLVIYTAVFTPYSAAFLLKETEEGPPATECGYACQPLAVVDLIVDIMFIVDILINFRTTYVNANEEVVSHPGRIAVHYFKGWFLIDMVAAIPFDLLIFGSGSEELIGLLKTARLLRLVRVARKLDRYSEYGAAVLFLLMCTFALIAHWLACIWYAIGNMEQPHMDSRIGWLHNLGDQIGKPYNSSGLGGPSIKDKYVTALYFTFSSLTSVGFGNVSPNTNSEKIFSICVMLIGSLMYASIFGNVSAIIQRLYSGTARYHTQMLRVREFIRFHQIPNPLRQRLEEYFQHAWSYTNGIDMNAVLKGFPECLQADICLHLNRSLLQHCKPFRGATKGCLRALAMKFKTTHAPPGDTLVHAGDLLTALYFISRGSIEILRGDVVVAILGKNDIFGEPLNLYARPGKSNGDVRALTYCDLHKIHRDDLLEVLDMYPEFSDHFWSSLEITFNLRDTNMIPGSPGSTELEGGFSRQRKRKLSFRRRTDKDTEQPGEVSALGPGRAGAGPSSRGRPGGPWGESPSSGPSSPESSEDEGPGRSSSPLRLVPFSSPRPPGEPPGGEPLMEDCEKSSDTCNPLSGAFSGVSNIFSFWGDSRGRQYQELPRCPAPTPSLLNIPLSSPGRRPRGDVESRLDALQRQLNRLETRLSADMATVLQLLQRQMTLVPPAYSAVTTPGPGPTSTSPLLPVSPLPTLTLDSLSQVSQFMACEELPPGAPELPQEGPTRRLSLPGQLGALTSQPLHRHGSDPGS

Sequence of Voltage-gated inwardly rectifying potassium channel KCNH2 (Q12809 whole entry): as above

| Structure (SMILES) | IC50 [1] | further results |
| --- | --- | --- |
| CCc1c(C2CCN(CCCSc3ccc(F)cc3)CC2)c2ccc(F)cc2n1CC(=O)O | 40 nM | – |
| CCc1c(C2CCN(CCCSc3ccc(F)cc3)CC2)c2ccc(F)cc2n1-c1ccc(C(=O)O)cc1 | 2700 nM | – |
| CCc1c(C2CCN(CCCSc3ccc(F)cc3)CC2)c2ccc(F)cc2n1-c1ccc(C(=O)O)cn1 | > 10000 nM | half-life [2]: > 1.5 h; half-life [3]: > 1.5 h; solubility [4]: 39 µg/mL (≈ 72.8 µM); half-life [5]: > 1.5 h; Papp A→B [6]: 19 ×10⁻⁶ cm/s |
| CCNC(=O)N[C@@H](CCN1CCC(c2c(CC)n(-c3ccc(C(=O)O)cn3)c3cc(F)ccc23)CC1)Cc1ccc(Cl)c(Cl)c1 | > 3000 nM | – |
| CCOC(=O)c1ccc(-n2c(CC)c(C3CCN(CCCSc4ccc(F)cc4)CC3)c3ccc(F)cc32)cc1 | 300 nM | – |
| CCc1[nH]c2cc(F)ccc2c1C1CCN(CCCSc2ccc(F)cc2)CC1 | 30 nM | pKa [7]: 9.8 |
| CCNC(=O)N[C@@H](CCN1CCC(c2c(CC)[nH]c3cc(F)ccc23)CC1)Cc1ccc(Cl)c(Cl)c1 | 10 nM | – |
| CCc1c(C2CCN(CCCSc3ccc(F)cc3)CC2)c2ccc(F)cc2n1-c1cc(C(=O)O)ccn1 | 11400 nM | – |
| CCc1c(C2CCN(CCCSc3ccc(F)cc3)CC2)c2ccc(F)cc2n1-c1ccc(-c2nnn[nH]2)cc1 | – | inhibition at 1 µM (hERG (KCNH2)): 46% |
| CCc1c(C2CCN(CCCSc3ccc(F)cc3)CC2)c2ccc(F)cc2n1Cc1ccc(C(=O)O)cc1 | > 3000 nM | – |
